Read-outs that look alike come from different tables or passages of the source.
Tests used:
bromodomain = test: at least one of the bromodomain cell assays of Example 57; format: cell-based; details: at least one of the bromodomain cell assays described in Example 57; read-out: IC50 in at least one of the bromodomain cell assays
BRD4-BD12 (1-477) = BRD4-BD12 (1-477) (Homo sapiens (Human), UniProt O60885); test: Alphascreen binding assay BRD4-BD12; details: BRD4(1 2) H4; read-out: Biochemical activity (IC50 μM) BRD4(1 2) H4
In short: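 First, compound was preincubated 1 h at room temperature with the His-tagged BRD4 protein (BD1 44-164 or tandem BD12 1-477) and acetylated H4 peptide. Next, donor and acceptor beads were added at 7.5 μg/ml final. After 30 min, AlphaScreen emission was recorded.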

MV-4-11 cells = test: Oncology cell growth assay MV-4-11 (CellTiter Glo); format: cell-based; details: Homo sapiens, MV4-11, 72 h, read-out: Cell activity (IC50 μM) MV-4-11 3d-Growth
In short: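 MV-4-11 AML cells (MLL-AF4), 3000 per well, exposed to 8-point 1:3 compound titration from 10 μM top concentration (0.2% DMSO) for 72 h. Viability by CellTiter Glo luminescence, normalized to DMSO controls; pIC50 from four-parameter curve fit.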

Cn1cc(-c2cnc3c(-c4ccc(C(=O)O)cc4)cn(CC4CCC(F)(F)CC4)c3c2)ccc1=O [P-0480, 4-[1-[(4,4-difluorocyclohexyl)methyl]-6-(1-methyl-6-oxo-3-pyridyl)pyrrolo[3,2-b]pyridin-3-yl]benzoic acid]
IC50 (bromodomain): < 10 µM | IC50 (BRD4-BD12 (1-477)): < 1 µM | IC50 (MV-4-11 cells; MV-4-11, 3d growth): 1 to 10 µM

[2H]C([2H])(C1CCC(F)(F)CC1)n1cc(-c2cnn(CCC#N)c2)c2ncc(-c3c(C)noc3C)cc21 [P-0339, 3-[4-[1-[dideuterio-(4,4-difluorocyclohexyl)methyl]-6-(3,5-dimethylisoxazol-4-yl)pyrrolo[3,2-b]pyridin-3-yl)pyrazol-1-yl]propanenitrile]
IC50 (bromodomain): < 10 µM | IC50 (BRD4-BD12 (1-477)): < 1 µM | IC50 (MV-4-11 cells): < 1 µM

[2H]C([2H])(C1CCC(F)(F)CC1)n1cc(-c2ccc(C)nc2)c2ncc(-c3c(C)noc3C)cc21 [P-0344, 4-[1-[dideuterio-(4,4-difluorocyclohexyl)methyl]-3-(6-methyl-3-pyridyl)pyrrolo[3,2-b]pyridin-6-yl]-3,5-dimethyl-isoxazole]
IC50 (bromodomain): < 10 µM | IC50 (BRD4-BD12 (1-477)): < 1 µM | IC50 (MV-4-11 cells): < 1 µM

Cc1noc(C)c1-c1cnc2c(-c3cnn(CC(F)(F)F)c3)cn(Cc3ccccn3)c2c1 [P-0376, 3,5-dimethyl-4-[1-(2-pyridylmethyl)-3-[1-(2,2,2-trifluoroethyl)pyrazol-4-yl]pyrrolo[3,2-b]pyridin-6-yl]isoxazole]
IC50 (bromodomain): < 10 µM | IC50 (BRD4-BD12 (1-477)): < 1 µM | IC50 (MV-4-11 cells): < 1 µM

Cc1noc(C)c1-c1cnc2c(-c3ccc(C(=O)O)c(F)c3)cn(CC3(F)CCCCC3)c2c1 [P-0469, 4-[6-(3,5-dimethylisoxazol-4-yl)-1-[(1-fluorocyclohexyl)methyl]pyrrolo[3,2-b]pyridin-3-yl]-2-fluoro-benzoic acid]
IC50 (bromodomain): < 10 µM | IC50 (BRD4-BD12 (1-477)): < 1 µM | IC50 (MV-4-11 cells; MV-4-11, 3d growth): < 1 µM

[2H]C([2H])(C1CC(F)(F)C1)n1cc(-c2cnn(CCF)c2)c2ncc(-c3c(C)noc3C)cc21 [P-0258, 4-[1-[dideuterio-(3,3-difluorocyclobutyl)methyl]-3-[1-(2-fluoroethyl)pyrazol-4-yl]pyrrolo[3,2-b]pyridin-6-yl]-3,5-dimethyl-isoxazole]
IC50 (bromodomain): < 10 µM | IC50 (BRD4-BD12 (1-477)): < 1 µM | IC50 (MV-4-11 cells): < 1 µM

COC(=O)Cc1ccc(-c2cn(CC3CCCC3)c3cc(-c4c(C)noc4C)cnc23)cc1 [P-0588, methyl 2-[4-[1-(cyclopentylmethyl)-6-(3,5-dimethylisoxazol-4-yl)pyrrolo[3,2-b]pyridin-3-yl]phenyl]acetate]
IC50 (bromodomain): < 10 µM | IC50 (BRD4-BD12 (1-477)): < 1 µM | IC50 (MV-4-11 cells; MV-4-11, 3d growth): < 1 µM

Cc1noc(C)c1-c1cnc2c(-c3cnn(C)c3)cn([C@H](C)c3ccccn3)c2c1 [P-0519, 3,5-dimethyl-4-[3-(1-methylpyrazol-4-yl)-1-[(1R)-1-(2-pyridyl)ethyl]pyrrolo[3,2-b]pyridin-6-yl]isoxazole]
IC50 (bromodomain): < 10 µM | IC50 (BRD4-BD12 (1-477)): < 1 µM | IC50 (MV-4-11 cells; MV-4-11, 3d growth): < 1 µM

Cc1noc(C)c1-c1cnc2c(-c3ccc(OCC(=O)O)cc3)cn(CC3(F)CCCCC3)c2c1 [P-0503, 2-[4-[6-(3,5-dimethylisoxazol-4-yl)-1-[(1-fluorocyclohexyl)methyl]pyrrolo[3,2-b]pyridin-3-yl]phenoxy]acetic acid]
IC50 (bromodomain): < 10 µM | IC50 (BRD4-BD12 (1-477)): < 1 µM | IC50 (MV-4-11 cells; MV-4-11, 3d growth): < 1 µM

[2H]C([2H])(C1CCC(F)(F)CC1)n1cc(-c2cnc(N)nc2)c2ncc(-c3c(C)noc3C)cc21 [P-0348, 5-[1-[dideuterio-(4,4-difluorocyclohexyl)methyl]-6-(3,5-dimethylisoxazol-4-yl)pyrrolo[3,2-b]pyridin-3-yl]pyrimidin-2-amine]
IC50 (bromodomain): < 10 µM | IC50 (BRD4-BD12 (1-477)): < 1 µM | IC50 (MV-4-11 cells): < 1 µM

COC(=O)c1ccc(-c2cn(CC3(F)CCC(F)(F)CC3)c3cc(-c4c(C)noc4C)cnc23)cc1F [P-0387, methyl 4-[6-(3,5-dimethylisoxazol-4-yl)-1-[(1,4,4-trifluorocyclohexyl)methyl]pyrrolo[3,2-b]pyridin-3-yl]-2-fluoro-benzoate]
IC50 (bromodomain): < 10 µM | IC50 (BRD4-BD12 (1-477)): < 1 µM | IC50 (MV-4-11 cells): < 1 µM

COC(=O)c1ccc(-c2cn(CC3CCCCCC3)c3cc(-c4c(C)noc4C)cnc23)cc1 [P-0585, methyl 4-[1-(cycloheptylmethyl)-6-(3,5-dimethylisoxazol-4-yl)pyrrolo[3,2-b]pyridin-3-yl]benzoate]
IC50 (bromodomain): < 10 µM | IC50 (BRD4-BD12 (1-477)): < 1 µM | IC50 (MV-4-11 cells; MV-4-11, 3d growth): 1 to 10 µM

Cc1noc(C)c1-c1cnc2c(-c3ccc(C(C)(C)C(=O)O)cc3)cn(CC3CCC(F)(F)CC3)c2c1 [P-0433, 2-[4-[1-[(4,4-difluorocyclohexyl)methyl]-6-(3,5-dimethylisoxazol-4-yl)pyrrolo[3,2-b]pyridin-3-yl]phenyl]-2-methyl-propanoic acid]
IC50 (bromodomain): < 10 µM | IC50 (BRD4-BD12 (1-477)): < 1 µM | IC50 (MV-4-11 cells; MV-4-11, 3d growth): < 1 µM

Cc1noc(C)c1-c1cnc2c(C#CC(=O)O)cn(CC3CCC(F)(F)CC3)c2c1 [P-0462, 3-[1-[(4,4-difluorocyclohexyl)methyl]-6-(3,5-dimethylisoxazol-4-yl)pyrrolo[3,2-b]pyridin-3-yl]prop-2-ynoic acid]
IC50 (bromodomain): < 10 µM | IC50 (BRD4-BD12 (1-477)): < 1 µM | IC50 (MV-4-11 cells; MV-4-11, 3d growth): 1 to 10 µM

Cc1noc(C)c1-c1cnc2c(I)cn(CC3(F)CCC(F)(F)CC3)c2c1 [P-0448, 4-[3-iodo-1-[(1,4,4-trifluorocyclohexyl)methyl]pyrrolo[3,2-b]pyridin-6-yl]-3,5-dimethyl-isoxazole]
IC50 (bromodomain): < 10 µM | IC50 (BRD4-BD12 (1-477)): < 1 µM | IC50 (MV-4-11 cells; MV-4-11, 3d growth): < 1 µM

Cc1noc(C)c1-c1cnc2c(-c3cnn(C(F)F)c3)cn([C@@H](C)c3ccccn3)c2c1 [P-0514, 4-[3-[1-(difluoromethyl)pyrazol-4-yl]-1-[(1S)-1-(2-pyridyl)ethyl]pyrrolo[3,2-b]pyridin-6-yl]-3,5-dimethyl-isoxazole]
IC50 (bromodomain): < 10 µM | IC50 (BRD4-BD12 (1-477)): < 1 µM | IC50 (MV-4-11 cells; MV-4-11, 3d growth): < 1 µM

COc1cc(-c2cn(CC3(C)CCOCC3)c3cc(-c4c(C)noc4C)cnc23)ccc1C(=O)O [P-0775, 4-[6-(3,5-dimethylisoxazol-4-yl)-1-[(4-methyltetrahydrpyran-4-yl)methyl]pyrrolo[3,2-b]pyridin-3-yl]-2-methoxy-benzoic acid]
IC50 (bromodomain): < 10 µM | IC50 (BRD4-BD12 (1-477)): < 1 µM | IC50 (MV-4-11 cells; MV-4-11, 3d growth): < 1 µM

CNC(=O)Nc1ccc(-c2cn(CC3(F)CCCCC3)c3cc(-c4c(C)noc4C)cnc23)cc1 [P-0522, 1-[4-[6-(3,5-dimethylisoxazol-4-yl)-1-[(1-fluorocyclohexyl)methyl]pyrrolo[3,2-b]pyridin-3-yl]phenyl]-3-methyl-urea]
IC50 (bromodomain): < 10 µM | IC50 (BRD4-BD12 (1-477)): < 1 µM | IC50 (MV-4-11 cells; MV-4-11, 3d growth): < 1 µM

Cc1noc(C)c1-c1cnc2c(-c3cnn(C)c3)cn(C(c3ccccn3)c3ccccn3)c2c1 [P-0593, 4-[1-[bis(2-pyridyl)methyl]-3-(1-methylpyrazol-4-yl)pyrrolo[3,2-b]pyridin-6-yl]-3,5-dimethyl-isoxazole]
IC50 (bromodomain): < 10 µM | IC50 (BRD4-BD12 (1-477)): < 1 µM | IC50 (MV-4-11 cells; MV-4-11, 3d growth): < 1 µM

Cc1noc(C)c1-c1cnc2c(-c3cccc(O)c3)cn(CC3(F)CCCCC3)c2c1 [P-0488, 3-[6-(3,5-dimethylisoxazol-4-yl)-1-[(1-fluorocyclohexyl)methyl]pyrrolo[3,2-b]pyridin-3-yl]phenol]
IC50 (bromodomain): < 10 µM | IC50 (BRD4-BD12 (1-477)): < 1 µM | IC50 (MV-4-11 cells; MV-4-11, 3d growth): < 1 µM

Cc1noc(C)c1-c1cnc2c(I)cn(CC3CCCC3)c2c1 [P-0549]
IC50 (bromodomain): < 10 µM | IC50 (BRD4-BD12 (1-477)): < 1 µM | IC50 (MV-4-11 cells; MV-4-11, 3d growth): < 1 µM

Cc1noc(C)c1-c1cnc2c(-c3ccc(C(=O)OC(C)(C)C)cc3)cn(S(=O)(=O)c3ccccc3)c2c1 [P-0374, tert-butyl 4-[1-(benzenesulfonyl)-6-(3,5-dimethylisoxazol-4-yl)pyrrolo[3,2-b]pyridin-3-yl]benzoate]
IC50 (bromodomain): < 10 µM | IC50 (BRD4-BD12 (1-477)): 1 to 10 µM | IC50 (MV-4-11 cells): 10 to 200 µM

Cc1noc(C)c1-c1cnc2c(-c3ccc(C(=O)O)cc3)cn(C(CC#N)C3CCCC3)c2c1 (stereo not drawn) [P-0527, 4-[1-(2-cyano-1-cyclopentyl-ethyl)-6-(3,5-dimethylisoxazol-4-yl)pyrrolo[3,2-b]pyridin-3-yl]benzoic acid]
IC50 (bromodomain): < 10 µM | IC50 (BRD4-BD12 (1-477)): < 1 µM | IC50 (MV-4-11 cells; MV-4-11, 3d growth): < 1 µM

COc1cc(-c2cn(CC3CCCCC3)c3cc(-c4c(C)noc4C)cnc23)ccc1C(=O)O [P-0700, 4-[1-(cyclohexylmethyl)-6-(3,5-dimethylisoxazol-4-yl)pyrrolo[3,2-b]pyridin-3-yl]-2-methoxy-benzoic acid]
IC50 (bromodomain): < 10 µM | IC50 (BRD4-BD12 (1-477)): < 1 µM | IC50 (MV-4-11 cells; MV-4-11, 3d growth): < 1 µM

Cc1noc(C)c1-c1cnc2c(-c3cnco3)cn(CC3CCC(F)(F)CC3)c2c1 [P-0400, 4-[1-[(4,4-difluorocyclohexyl)methyl]-3-oxazol-5-yl-pyrrolo[3,2-b]pyridin-6-yl]-3,5-dimethyl-isoxazole]
IC50 (bromodomain): < 10 µM | IC50 (BRD4-BD12 (1-477)): < 1 µM | IC50 (MV-4-11 cells): < 1 µM

Cc1noc(C)c1-c1cnc2c(-c3ccc(O)c(Cl)c3)cn(CC3(F)CCCCC3)c2c1 [P-0524]
IC50 (bromodomain): < 10 µM | IC50 (BRD4-BD12 (1-477)): < 1 µM | IC50 (MV-4-11 cells; MV-4-11, 3d growth): < 1 µM

Cc1noc(C)c1-c1cnc2c(-c3csc(C(=O)O)c3)cn(CC3(F)CCCCC3)c2c1 [P-0477, 4-[6-(3,5-dimethylisoxazol-4-yl)-1-[(1-fluorocyclohexyl)methyl]pyrrolo[3,2-b]pyridin-3-yl]thiophene-2-carboxylic acid]
IC50 (bromodomain): < 10 µM | IC50 (BRD4-BD12 (1-477)): < 1 µM | IC50 (MV-4-11 cells; MV-4-11, 3d growth): 1 to 10 µM

COc1ccc(-c2cn(CC3(F)CCCCC3)c3cc(-c4c(C)noc4C)cnc23)cn1 [P-0470, 4-[1-[(1-fluorocyclohexyl)methyl]-3-(6-methoxy-3-pyridyl)pyrrolo[3,2-b]pyridin-6-yl]-3,5-dimethyl-isoxazole]
IC50 (bromodomain): < 10 µM | IC50 (BRD4-BD12 (1-477)): < 1 µM | IC50 (MV-4-11 cells; MV-4-11, 3d growth): < 1 µM

Source: patent US10519177B2, “Heterocyclic compounds and uses thereof” (Plexxikon Inc., priority 2013, dated 2019)
